Data on 26 compounds can be found in US9029378B2, “Substituted bicyclic aromatic carboxamide and urea compounds as vanilloid receptor ligands” (Gruenenthal GmbH, priority 2011, dated 2015).

This experiment has as its target T1, vanilloid receptor 1 (VR1/TRPV1 receptor) (Homo sapiens, UniProt Q8NER1).
T1 construct: expressed in transfected cells; host or cells: CHO K1
As to the kind of experiment: Functional testing on the vanilloid receptor 1 (FLIPR Ca2+ influx assay, capsaicin). The experiment is classed as cell-based, human being. The following applies: for Ki: Cap=capsaicin (100 nM), Ki from IC50 by Cheng-Prusoff equation, read-out: (f) Ki (human being) [nM] Cap. The protocol:
Furthermore, preference may be given to compounds according to the invention that cause a 50 percent displacement of capsaicin, which is present at a concentration of 100 nM, in a FLIPR assay with CHO K1 cells which were transfected with the human VR1 gene at a concentration of less than 2,000 nM, preferably less than 1,000 nM, particularly preferably less than 300 nM, most particularly preferably less than 100 nM, even more preferably less than 75 nM, additionally preferably less than 50 nM, most preferably less than 10 nM.
In the process, the Ca^2+ influx is quantified in the FLIPR assay with the aid of a Ca^2+-sensitive dye (type Fluo-4, Molecular Probes Europe BV, Leiden, the Netherlands) in a fluorescent imaging plate reader (FLIPR, Molecular Devices, Sunnyvale, USA), as described hereinafter.
Pharmacological Methods I. Functional Testing Carried Out on the Vanilloid Receptor 1 (VR1/TRPV1 Receptor) […]
The number of cells in the suspension is set to 3×10^5 per mL and 150 μL of this suspension are in each case introduced into a recess in the cell culture plates coated as described hereinbefore. In the incubator the plates are left for two to three days at 37° C., 5% by volume of CO2 and 95% relative humidity. Subsequently, the cells are loaded with 2 μM of Fluo-4 and 0.01% by volume of Pluronic F127 (Molecular Probes Europe BV, Leiden, the Netherlands) in HBSS buffer (Hank's buffered saline solution, Gibco Invitrogen GmbH, Karlsruhe, Germany) for 30 min at 37° C., washed 3 times with HBSS buffer and after further incubation for 15 minutes at room temperature used for Ca^2+ measurement in a FLIPR assay. The Ca^2+-dependent fluorescence is in this case measured before and after the addition of substances (λex=488 nm, λem=540 nm). Quantification is carried out by measuring the highest fluorescence intensity (FC, fluorescence counts) over time.
The FLIPR protocol consists of 2 substance additions. First the compounds to be tested (10 μM) are pipetted onto the cells and the Ca^2+ influx is compared with the control (capsaicin 10 μM). This provides the result in % activation based on the Ca^2+ signal after the addition of 10 μM of capsaicin (CP). After 5 minutes' incubation, 100 nM of capsaicin are applied and the Ca^2+ influx is also determined.
Desensitising agonists and antagonists lead to suppression of the Ca^2+ influx. The % inhibition is calculated compared to the maximum achievable inhibition with 10 μM of capsazepine. Triple analyses (n=3) are carried out and repeated in at least 3 independent experiments (N=4). Starting from the percentage displacement caused by different concentrations of the compounds to be tested of general formula I, IC50 inhibitory concentrations which cause a 50-percent displacement of capsaicin were calculated. Ki values for the test substances were obtained by conversion by means of the Cheng-Prusoff equation (Cheng, Prusoff; Biochem. Pharmacol. 22, 3099-3108, 1973).
The affinity of the compounds of to the invention for the vanilloid receptor 1 (VR1/TRPV1 receptor) was determined as described hereinbefore (pharmacological method I). The compounds of the invention display outstanding affinity to the VR1/TRPV1 receptor (Table 2). In Table 2 the abbreviations below have the following meanings: • Cap=capsaicin • AG=agonist • NE=no effect
The value after the “@” symbol indicates the concentration at which the inhibition (as a percentage) was respectively determined.

T1 sequence (Q8NER1 whole entry): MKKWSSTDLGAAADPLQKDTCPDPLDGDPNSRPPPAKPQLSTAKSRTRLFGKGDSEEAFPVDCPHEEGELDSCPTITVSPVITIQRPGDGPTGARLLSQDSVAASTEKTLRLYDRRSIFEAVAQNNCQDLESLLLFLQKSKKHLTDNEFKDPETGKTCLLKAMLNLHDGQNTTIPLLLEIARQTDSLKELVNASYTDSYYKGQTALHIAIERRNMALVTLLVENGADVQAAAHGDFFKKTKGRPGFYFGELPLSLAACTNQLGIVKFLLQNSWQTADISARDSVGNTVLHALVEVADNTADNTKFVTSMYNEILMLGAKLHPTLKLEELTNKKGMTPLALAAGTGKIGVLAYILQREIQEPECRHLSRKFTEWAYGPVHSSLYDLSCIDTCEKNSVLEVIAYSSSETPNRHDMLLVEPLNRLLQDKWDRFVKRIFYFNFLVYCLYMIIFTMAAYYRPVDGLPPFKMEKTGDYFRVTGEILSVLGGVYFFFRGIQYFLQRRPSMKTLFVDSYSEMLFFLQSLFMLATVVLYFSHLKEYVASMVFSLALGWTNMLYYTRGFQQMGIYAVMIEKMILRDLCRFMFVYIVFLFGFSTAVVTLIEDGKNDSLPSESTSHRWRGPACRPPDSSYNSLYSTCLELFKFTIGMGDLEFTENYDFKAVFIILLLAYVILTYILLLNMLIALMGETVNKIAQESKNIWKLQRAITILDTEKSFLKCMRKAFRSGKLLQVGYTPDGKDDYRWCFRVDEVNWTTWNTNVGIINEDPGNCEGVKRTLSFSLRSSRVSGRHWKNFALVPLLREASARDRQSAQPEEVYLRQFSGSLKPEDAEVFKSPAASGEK

What is called inhibition is the drop in the measured response relative to a control, in per cent. Take `CC1CCN(c2nc(C(F)(F)F)ccc2CNC(=O)Nc2cccc3cc[nH]c23)CC1` [Example 36, 1-(1H-Indol-7-yl)-3-((2-(4-methylpiperidin-1-yl)-6-(trifluoromethyl)pyridin-3-yl)methyl)urea]: the inhibition at 0.1 µM (@0.1 μM, Cap=capsaicin, read-out: inhibition (as a percentage), (f) (human being) Cap) amounted to 37%.
In general, Ki refers to a dissociation constant, usually derived from enzyme kinetics or from competition with a known ligand. Turning to `Cc1[nH]c2c(NC(=O)NCc3ccc(C(F)(F)F)nc3N3CCC(C)CC3)cccc2c1C` [Example 37, 1-(2,3-Dimethyl-1H-indol-7-yl)-3-((2-(4-methylpiperidin-1-yl)-6-(trifluoromethyl)pyridin-3-yl)methyl)urea], the Ki was found to be 4 nM.
The same measure, in the same setting: with `CC1CCN(c2nc(C(F)(F)F)ccc2CNC(=O)Nc2cccc3[nH]ccc23)CC1` [Example 38, 1-(1H-Indol-4-yl)-3-((2-(4-methylpiperidin-1-yl)-6-(trifluoromethyl)pyridin-3-yl)methyl)urea] the figure was 1 nM.
In the case of `CN(C)C1(c2ccccc2)CCN(c2nc(C(F)(F)F)ccc2CNC(=O)Nc2cccc3[nH]ccc23)CC1` [Example 39, 1-((2-(4-(Dimethylamino)-4-phenylpiperidin-1-yl)-6-(trifluoromethyl)pyridin-3-yl)methyl)-3-(1H-indol-4-yl)urea], the Ki was 8 nM.
On the same count and under the same terms, in the case of `CC1CCN(c2nc(C(F)(F)F)ccc2CNC(=O)Nc2cccc3c2ccn3C)CC1` [Example 40, 1-(1-Methyl-1H-indol-4-yl)-3-((2-(4-methylpiperidin-1-yl)-6-(trifluoromethyl)pyridin-3-yl)methyl)urea] it was 5 nM; in that of `CC(=O)n1ccc2c(NC(=O)NCc3ccc(C(F)(F)F)nc3N3CCC(C)CC3)cccc21` [Example 41, 1-(1-Acetyl-1H-indol-4-yl)-3-((2-(4-methylpiperidin-1-yl)-6-(trifluoromethyl)pyridin-3-yl)methyl)urea], 8 nM.
Regarding `CC1CCN(c2nc(C(F)(F)F)ccc2CNC(=O)Nc2cccc3c2ccn3S(C)(=O)=O)CC1` [Example 42, 1-((2-(4-Methylpiperidin-1-yl)-6-(trifluoromethyl)pyridin-3-yl)methyl)-3-(1-(methylsulfonyl)-1H-indol-4-yl)urea], the Ki was determined as 2 nM.
Still for that read-out and setting: in the case of `CC1CCN(c2nc(C(F)(F)F)ccc2CNC(=O)Nc2cccc3[nH]c(C(C)(C)C)cc23)CC1` [Example 43, 1-(2-Tert-butyl-1H-indol-4-yl)-3-((2-(4-methylpiperidin-1-yl)-6-(trifluoromethyl)pyridin-3-yl)methyl)urea] it was 8 nM; in that of `CC1CCN(c2nc(C(F)(F)F)ccc2CNC(=O)Nc2cccc3[nH]ncc23)CC1` [Example 44, 1-(1H-indazol-4-yl)-3-((2-(4-methylpiperidin-1-yl)-6-(trifluoromethyl)pyridin-3-yl)methyl)urea], 0.4 nM; in that of `CN(C)C1(c2ccccc2)CCN(c2nc(C(F)(F)F)ccc2CNC(=O)Nc2cccc3[nH]ncc23)CC1` [Example 45, 1-((2-(4-(dimethylamino)-4-phenylpiperidin-1-yl)-6-(trifluoromethyl)pyridin-3-yl)methyl)-3-(1H-indazol-4-yl)urea], 7 nM.
The same measure, in the same setting: with `CC1CCN(c2nc(C(F)(F)F)ccc2CNC(=O)Nc2cccc3c2cnn3C)CC1` [Example 46, 1-(1-Methyl-1H-indazol-4-yl)-3-((2-(4-methylpiperidin-1-yl)-6-(trifluoromethyl)pyridin-3-yl)methyl)urea] the figure was 0.5 nM; with `CCCCOc1nc(C(F)(F)F)ccc1CNC(=O)Nc1cccc2c1cnn2C` [Example 47, 1-((2-Butoxy-6-(trifluoromethyl)pyridin-3-yl)methyl)-3-(1-methyl-1H-indazol-4-yl)urea], 3 nM; with `Cn1ncc2c(NC(=O)NCc3ccc(C(F)(F)F)nc3OCC3CCC3)cccc21` [Example 48, 1-((2-(Cyclobutylmethoxy)-6-(trifluoromethyl)pyridin-3-yl)methyl)-3-(1-methyl-1H-indazol-4-yl)urea], 2 nM.
`CC(=O)n1ncc2c(NC(=O)NCc3ccc(C(F)(F)F)nc3N3CCC(C)CC3)cccc21` [Example 49, 1-(1-Acetyl-1H-indazol-4-yl)-3-((2-(4-methylpiperidin-1-yl)-6-(trifluoromethyl)pyridin-3-yl)methyl)urea]: the Ki was 13 nM.
Same read-out and setting: with `CC1CCN(c2nc(C(F)(F)F)ccc2CNC(=O)Nc2cc(F)cc3[nH]ncc23)CC1` [Example 51, 1-(6-Fluoro-1H-indazol-4-yl)-3-((2-(4-methylpiperidin-1-yl)-6-(trifluoromethyl)pyridin-3-yl)methyl)urea] the figure was 3 nM; with `CC1CCN(c2nc(C(C)(C)C)ccc2CNC(=O)Nc2cc(F)cc3[nH]ncc23)CC1` [Example 52, 1-((6-Tert-butyl-2-(4-methylpiperidin-1-yl)pyridin-3-yl)methyl)-3-(6-fluoro-1H-indazol-4-yl)urea], 2 nM.
Still for that read-out and setting: in the case of `CC1CCN(c2cc(C(F)(F)F)ccc2CNC(=O)Nc2cc(F)cc3[nH]ncc23)CC1` [Example 53, 1-(6-Fluoro-1H-indazol-4-yl)-3-(2-(4-methylpiperidin-1-yl)-4-(trifluoromethyl)benzyl)urea] it was 1 nM; in that of `O=C(NCc1ccc(C(F)(F)F)cc1C1CCCC1)Nc1cc(F)cc2[nH]ncc12` [Example 54, 1-(2-Cyclopentyl-4-(trifluoromethyl)benzyl)-3-(6-fluoro-1H-indazol-4-yl)urea], 7 nM; in that of `CC1CCN(c2nc(C(F)(F)F)ccc2CNC(=O)Nc2cc(Cl)cc3[nH]ncc23)CC1` [Example 55, 1-(6-Chloro-1H-indazol-4-yl)-3-((2-(4-methylpiperidin-1-yl)-6-(trifluoromethyl)pyridin-3-yl)methyl)urea], 4 nM.
On to `Cc1cc(NC(=O)NCc2ccc(C(F)(F)F)nc2N2CCC(C)CC2)c2cn[nH]c2c1` [Example 56, 1-(6-Methyl-1H-indazol-4-yl)-3-((2-(4-methylpiperidin-1-yl)-6-(trifluoromethyl)pyridin-3-yl)methyl)urea], for which the inhibition at 5 µM (@5 μM, Cap=capsaicin, read-out: inhibition (as a percentage), (f) (human being) Cap) stood at 45%.
For `CC1CCN(c2nc(C(F)(F)F)ccc2CNC(=O)Nc2c(Cl)ccc3[nH]ncc23)CC1` [Example 57, 1-(5-Chloro-1H-indazol-4-yl)-3-((2-(4-methylpiperidin-1-yl)-6-(trifluoromethyl)pyridin-3-yl)methyl)urea], the Ki was 3 nM.
Same read-out and setting: in the case of `CC1CCN(c2nc(C(F)(F)F)ccc2CNC(=O)Nc2cccc3[nH]cnc23)CC1` [Example 58, 1-(1H-Benzo[d]imidazol-4-yl)-3-((2-(4-methylpiperidin-1-yl)-6-(trifluoromethyl)pyridin-3-yl)methyl)urea] it was 3 nM.
As for `CC1CCN(c2nc(C(F)(F)F)ccc2CNC(=O)Nc2cccc3scnc23)CC1` [Example 59, 1-(Benzo[d]thiazol-4-yl)-3-((2-(4-methylpiperidin-1-yl)-6-(trifluoromethyl)pyridin-3-yl)methyl)urea], the Ki is 18 nM.
On the same count and under the same terms, with `CC1CCN(c2nc(C(F)(F)F)ccc2CNC(=O)Nc2cccc3ncsc23)CC1` [Example 60, 1-(Benzo[d]thiazol-7-yl)-3-((2-(4-methylpiperidin-1-yl)-6-(trifluoromethyl)pyridin-3-yl)methyl)urea] the figure was 1 nM.
The same measure, in the same setting: with `CC1CCN(c2cc(C(C)(C)C)ccc2CNC(=O)Nc2cccc3ncccc23)CC1` [Example 62, 1-(4-Tert-butyl-2-(4-methylpiperidin-1-yl)benzyl)-3-(quinolin-5-yl)urea] the figure was 1 nM.
The same measure, in the same setting: in the case of `CC1CCN(c2cc(C(F)(F)F)ccc2CNC(=O)Nc2cccc3ncccc23)CC1` [Example 63, 1-(2-(4-Methylpiperidin-1-yl)-4-(trifluoromethyl)benzyl)-3-(quinolin-5-yl)urea] it was 0.7 nM.
